Experimental data taken from patent publication US10822337B2, “TGF-β inhibitorC” (Rigel Pharmaceuticals, Inc., priority 2015, dated 2020).

How the values were obtained:
[1] = system: GDF8 signaling (GDF pSMAD, MPC11); experiment: AlphaScreen SureFire SMAD3 (p-Ser423/425) assay, inhibition of GDF8 signaling; assay type: cell-based; conditions: Mus musculus, MPC-11, p-SMAD-3 (Ser423/425) in cell lysate after GDF8 stimulation
[2] = system: TGF-β signaling (TGF-β pSMAD, MPC-11); experiment: AlphaScreen SureFire SMAD3 (p-Ser423/425) assay, inhibition of TGF-β signaling; assay type: cell-based; conditions: Mus musculus, p-SMAD-3 (Ser423/425) in cell lysate after TGF-β stimulation
Method in brief: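 Cells in collagen-coated plates were pretreated about 10 minutes with three-fold DMSO serial dilutions of compound, then stimulated with TGF-β. They were lysed with about 25 μL 1× Lysis Buffer. Lysates in 384-well plates were incubated protected from light with Acceptor bead mix for 2 hours and Donor bead mix for 1½ hours. p-SMAD-3 (Ser423/425) was read on Synergy-4 or Enspire using AlphaScreen pSMAD3 settings.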

IC50 [1]	IC50 [2]	SMILES
336 nM	1340 nM	Fc1cccc(-c2nn3c(c2-c2ccc4[nH]ncc4c2)CCC3)c1 [Compound 77, 5-(2-(3-Fluorophenyl)-5,6-dihydro-4H-pyrrolo[1,2-b]pyrazol-3-yl)-1H-indazole]
776 nM	4020 nM	c1cc2c(cc1-c1nn3c(c1-c1ccc4[nH]ncc4c1)CCC3)OCO2 [Compound 90, 5-(2-(Benzo[d][1,3]dioxol-5-yl)-5,6-dihydro-4H-pyrrolo[1,2-b]pyrazol-3-yl)-1H-indazole]
144 nM	660 nM	Fc1ccccc1-c1nn2c(c1-c1ccc3ncnn3c1)CCC2 [Compound 137, 6-(2-(2-Fluorophenyl)-5,6-dihydro-4H-pyrrolo[1,2-b]pyrazol-3-yl)-[1,2,4]triazolo[1,5-a]pyridine]
39.8 nM	159 nM	FC(F)(F)c1cccc(-c2nn3c(c2-c2ccc4ncnn4c2)CCC3)c1 [Compound 108, 6-(2-(3-Trifluoromethylphenyl)-5,6-dihydro-4H-pyrrolo[1,2-b]pyrazol-3-yl)-[1,2,4]triazolo[1,5-a]pyridine]
274 nM	952 nM	COCCOc1cnc2ccc(-c3c(-c4cc(F)ccc4F)nn4c3CCC4)cc2n1 [Compound 200, 7-(2-(2,5-difluorophenyl)-5,6-dihydro-4H-pyrrolo[1,2-b]pyrazol-3-yl)-2-(2-methoxyethoxy)quinoxaline]
35.6 nM	83.5 nM	Fc1ccc(Cl)cc1-c1nn2c(c1-c1ccc3nccnc3c1)CCC2 [Compound 177, 6-(2-(5-Chloro-2-fluorophenyl)-5,6-dihydro-4H-pyrrolo[1,2-b]pyrazol-3-yl)quinoxaline]
129 nM	500 nM	Fc1ccc(-c2nn3c(c2-c2ccc4[nH]ncc4c2)CCC3)cc1 [Compound 5, 5-(2-(4-Fluorophenyl)-5,6-dihydro-4H-pyrrolo[1,2-b]pyrazol-3-yl)-1H-indazole]
129 nM	926 nM	Clc1cccc(-c2nn3c(c2-c2ccc4ncccc4c2)CCC3)c1 [Compound 49, 6-(2-(3-Chlorophenyl)-5,6-dihydro-4H-pyrrolo[1,2-b]pyrazol-3-yl)quinoline]
173 nM	525 nM	Cc1cc(-c2nn3c(c2-c2ccc4nccnc4c2)CCC3)ccc1F [Compound 55, 6-(2-(4-Fluoro-3-methylphenyl)-5,6-dihydro-4H-pyrrolo[1,2-b]pyrazol-3-yl)quinoxaline]
760 nM	2980 nM	Fc1cccc(-c2nn3c(c2-c2ccc4nccn4c2)CCC3)c1 [Compound 80, 6-(2-(3-Fluorophenyl)-5,6-dihydro-4H-pyrrolo[1,2-b]pyrazol-3-yl)imidazo[1,2-a]pyridine]
372 nM	866 nM	COc1cccc(-c2nn3c(c2-c2ccc4nccnc4c2)CCC3)c1 [Compound 56, 6-(2-(3-Methoxyphenyl)-5,6-dihydro-4H-pyrrolo[1,2-b]pyrazol-3-yl)quinoxaline]
51 nM	171 nM	FC(F)(F)c1cccc(-c2nn3c(c2-c2ccc4[nH]ncc4c2)CCC3)c1 [Compound 31, 5-(2-(3-Trifluoromethylphenyl)-5,6-dihydro-4H-pyrrolo[1,2-b]pyrazol-3-yl)-1H-indazole]
286 nM	946 nM	Fc1ccc(-c2nn3c(c2-c2ccc4ncsc4c2)CCC3)c(F)c1F [Compound 131, 6-(2-(2,3,4-Trifluorophenyl)-5,6-dihydro-4H-pyrrolo[1,2-b]pyrazol-3-yl)benzo[d]thiazole]
364 nM	1010 nM	Fc1ccc(-c2nn3c(c2-c2ccc4ncsc4c2)CCC3)cc1F [Compound 87, 6-(2-(3,4-Difluorophenyl)-5,6-dihydro-4H-pyrrolo[1,2-b]pyrazol-3-yl)benzo[d]thiazole]
340 nM	949 nM	Clc1ccccc1-c1nn2c(c1-c1ccc3ncnn3c1)CCC2 [Compound 121, 6-(2-(2-Chlorophenyl)-5,6-dihydro-4H-pyrrolo[1,2-b]pyrazol-3-yl)-[1,2,4]triazolo[1,5-a]pyridine]
1220 nM	1840 nM	Cc1c(F)ccc(-c2nn3c(c2-c2ccc4ncccc4c2)CCC3)c1F [Compound 171, 6-(2-(2,4-Difluoro-3-methylphenyl)-5,6-dihydro-4H-pyrrolo[1,2-b]pyrazol-3-yl)quinoline]
106 nM	264 nM	COc1cccc(-c2nn3c(c2-c2ccc4ncn(C)c4c2)CCC3)c1 [Compound 29, 6-(2-(3-Methoxyphenyl)-5,6-dihydro-4H-pyrrolo[1,2-b]pyrazol-3-yl)-1-methyl-1H-benzo[d]imidazole]
147 nM	501 nM	Cc1cccc(-c2nn3c(c2-c2ccc4ncsc4c2)OCCC3)c1 [Compound 43, 3-(benzo[d]thiazol-6-yl)-2-(m-tolyl)-6,7-dihydro-5H-pyrazolo[5,1-b][1,3]oxazine]
21.3 nM	79.4 nM	Cc1cccc(-c2nn3c(c2-c2ccc4cn[nH]c4c2)CCC3)c1 [Compound 8, 6-(2-(m-Tolyl)-5,6-dihydro-4H-pyrrolo[1,2-b]pyrazol-3-yl)-1H-indazole]
160 nM	124 nM	FC(F)(F)Oc1cccc(-c2nn3c(c2-c2ccc4ncsc4c2)CCC3)c1 [Compound 125, 6-(2-(3-Trifluoromethoxyphenyl)-5,6-dihydro-4H-pyrrolo[1,2-b]pyrazol-3-yl)benzo[d]thiazole]
180 nM	649 nM	COc1cccc(-c2nn3c(c2-c2ccc4nccnc4c2)OCC3)c1 [Compound 76, 6-(3-Methoxyphenyl)-7-(quinoxalin-6-yl)-2,3-dihydropyrazolo[5,1-b]oxazole]
159 nM	600 nM	COc1cccc(-c2nn3c(c2-c2ccc4ncnn4c2)CCC3)c1 [Compound 106, 6-(2-(3-Methoxyphenyl)-5,6-dihydro-4H-pyrrolo[1,2-b]pyrazol-3-yl)-[1,2,4]triazolo[1,5-a]pyridine]
53.7 nM	45.9 nM	FC(F)(F)Oc1cccc(-c2nn3c(c2-c2ccc4nccn4c2)CCC3)c1 [Compound 124, 6-(2-(3-Trifluoromethoxyphenyl)-5,6-dihydro-4H-pyrrolo[1,2-b]pyrazol-3-yl)imidazo[1,2-a]pyridine]
395 nM	2340 nM	Fc1ccc(-c2nn3c(c2-c2ccc4nccnc4c2)CCC3)cc1 [Compound 53, 6-(2-(4-Fluorophenyl)-5,6-dihydro-4H-pyrrolo[1,2-b]pyrazol-3-yl)quinoxaline]
448 nM	825 nM	Fc1ccc(-c2nn3c(c2-c2ccc4ncnn4c2)CCC3)cc1OC(F)(F)F [Compound 154, 6-(2-(4-Fluoro-3-trifluoromethoxyphenyl)-5,6-dihydro-4H-pyrrolo[1,2-b]pyrazol-3-yl)-[1,2,4]triazolo[1,5-a]pyridine]
678 nM	1780 nM	Cc1c(F)ccc(-c2nn3c(c2-c2ccc4nccnc4c2)CCC3)c1F [Compound 172, 6-(2-(2,4-Difluoro-3-methylphenyl)-5,6-dihydro-4H-pyrrolo[1,2-b]pyrazol-3-yl)quinoxaline]
206 nM	847 nM	COc1cccc(-c2nn3c(c2-c2ccc4[nH]ncc4c2)CCC3)c1 [Compound 27, 5-(2-(3-Methoxyphenyl)-5,6-dihydro-4H-pyrrolo[1,2-b]pyrazol-3-yl)-1H-indazole]
